Patent publication US6911542B2, “Pyrazino[1′,2′:1,6]pyrido[3,4b]indole derivatives” (Lilly Icos LLC., priority 2000, dated 2005)

Molecular target: T1, human recombinant PDE5 (Homo sapiens, UniProt O76074)
T1 construct: host or cells: Saccharomyces cerevisiae, protease-deficient strain BJ2-54 (ATCC 74465)
Experiment: cGMP-PDE one-step inhibition assay, human recombinant PDE5
Assay type: biochemical
Conditions: 0.15 μM 8-[H3]-cGMP, 30 min incubation
Experimental: The compounds of structural formula (I) were tested for an ability to inhibit PDE5. The ability of a compound to inhibit PDE5 activity is related to the IC50 value for the compound, i.e., the concentration of inhibitor required for 50% inhibition of enzyme activity. The IC50 value for compounds of structural formula (I) were determined using recombinant human PDE5.
The production of recombinant human PDEs and the IC50 determinations can be accomplished by well-known methods in the art. Exemplary methods are described as follows:
Recombinant production of human PDE1B, PDE2, PDE4A, PDE4B, PDE4C, PDE4D, PDE5, and PDE7 was carried out similarly to that described in Example 7 of U.S. Pat. No. 5,702,936, incorporated herein by reference, except that the yeast transformation vector employed, which is derived from the basic ADH2 plasmid described in Price et al., Methods in Enzymology, 185, pp. 308-318 (1990), incorporated yeast ADH2 promoter and terminator sequences and the Saccharomyces cerevisiae host was the protease-deficient strain BJ2-54 deposited on Aug. 31, 1998 with the American Type Culture Collection, Manassas, Va., under accession number ATCC 74465. Transformed host cells were grown in 2×SC-leu medium, pH 6.2, with trace metals, and vitamins. After 24 hours, YEP medium-containing glycerol was added to a final concentration of 2×YET/3% glycerol. Approximately 24 hr later, cells were harvested, washed, and stored at −70° C. […]
Cell pellets (29 g) were thawed on ice with an equal volume of Lysis Buffer (25 mM Tris HCl, pH 8, 5 mM MgCl2, 0.25 mM DTT, 1 mM benzamidine, and 10 μM ZnSO4). Cells were lysed in a Microfluidizer® (Microfluidics Corp.) using nitrogen at 20,000 psi. The lysate was centrifuged and filtered through 0.45 μm disposable filters. The filtrate was applied to a 150 mL column of Q SEPHAROSE® Fast-Flow (Pharmacia). The column was washed with 1.5 volumes of Buffer A (20 mM Bis-Tris Propane, pH 6.8, 1 mM MgCl2, 0.25 mM DTT, 10 μM ZnSO4) and eluted with a step gradient of 125 mM NaCl in Buffer A followed by a linear gradient of 125-1000 mM NaCl in Buffer A. Active fractions from the linear gradient were applied to a 180 mL hydroxyapatite column in Buffer B (20 mM Bis-Tris Propane (pH 6.8), 1 mM MgCl2, 0.25 mM DTT, 10 μM ZnSO4, and 250 mM KCl). After loading, the column was washed with 2 volumes of Buffer B and eluted with a linear gradient of 0-125 mM potassium phosphate in Buffer B. Active fractions were pooled, precipitated with 60% ammonium sulfate, and resuspended in Buffer C (20 mM Bis-Tris Propane, pH 6.8, 125 mM NaCl, 0.5 mM DTT, and 10 μM ZnSO4). The pool was applied to a 140 mL column of […]® S-300 HR and eluted with Buffer C. Active fractions were diluted to 50% glycerol and stored at −20° C.
cGMP-PDE activity of compounds of the present invention was measured using a one-step assay adapted from Wells et al., Biochim. Biophys. Acta, 384, 430 (1975). The reaction medium contained 50 mM Tris-HCl, pH 7.5, 5 mM magnesium acetate, 250 μg/ml 5′-Nucleotidase, 1 mM EGTA, and 0.15 μM 8-[H^3]-cGMP. Unless otherwise indicated, the enzyme used was a human recombinant PDE5 (ICOS Corp., Bothell, Wash.).
Compounds of the invention were dissolved in DMSO finally present at 2% in the assay.

Structure (SMILES)	IC50 [µM]
CCCCCCCCOC(=O)CN1CC(=O)N2[C@H](c3ccc4c(c3)OCO4)c3[nH]c4ccccc4c3C[C@@H]2C1=O [Example 88]	0.11
O=C(O)CCN1CC(=O)N2[C@H](c3ccc4c(c3)OCO4)c3[nH]c4ccccc4c3C[C@@H]2C1=O [Example 72]	0.0023
CNc1cc(CN2CC(=O)N3[C@H](c4ccc5c(c4)OCO5)c4[nH]c5ccccc5c4C[C@@H]3C2=O)cc([N+](=O)[O-])c1 [Example 83]	0.04
O=C1[C@H]2Cc3c([nH]c4ccccc34)[C@@H](c3ccc4c(c3)OCO4)N2C(=O)CN1Cc1ccc(NS(=O)(=O)C(F)(F)F)cc1 [Example 57]	0.0051
O=C(O)c1ccc(CN2CC(=O)N3[C@H](c4ccc5c(c4)OCO5)c4[nH]c5ccccc5c4C[C@@H]3C2=O)cc1 [Example 47]	0.0043
O=C1[C@H]2Cc3c([nH]c4ccccc34)[C@@H](c3ccc4c(c3)OCO4)N2C(=O)CN1CCCN1CCOCC1 [Example 18]	0.04
Cn1cnc2cc(CN3CC(=O)N4[C@H](c5ccc6c(c5)OCO6)c5[nH]c6ccccc6c5C[C@@H]4C3=O)ccc21 [Example 85]	0.02
NN1CC(=O)N2[C@H](c3ccc4c(c3)OCO4)c3[nH]c4ccccc4c3C[C@@H]2C1=O [Example 4, (6R,12aR)-2-Amino-6-benzo[1,3]dioxo-5-yl-2,3,6,7,12,12a-hexahydropyrazino[1′, 2′:1,6]-pyrido[3,4-b]indole-1,4-dione]	0.0018
O=C1C2Cc3c([nH]c4ccccc34)C(c3ccc4c(c3)OCO4)N2C(=O)CN1CCn1cncn1 (stereo not drawn) [Example 82]	0.03
NS(=O)(=O)c1ccc(CN2CC(=O)N3[C@H](c4ccc5c(c4)OCO5)c4[nH]c5ccccc5c4C[C@@H]3C2=O)cc1 [Example 58]	0.02
O=C1[C@H]2Cc3c([nH]c4ccccc34)[C@@H](c3ccc4c(c3)OCO4)N2C(=O)CN1CCc1cnc[nH]1 [Example 64]	0.02
Nc1ccc(CCN2CC(=O)N3[C@H](c4ccc5c(c4)OCO5)c4[nH]c5ccccc5c4C[C@@H]3C2=O)cc1 [Example 66]	0.04
CN(C)CCOc1ccc(CN2CC(=O)N3[C@H](c4ccc5c(c4)OCO5)c4[nH]c5ccccc5c4C[C@@H]3C2=O)cc1 [Example 81]	0.29
O=C1[C@H]2Cc3c([nH]c4ccccc34)[C@@H](c3ccc4c(c3)OCO4)N2C(=O)CN1CCCn1cccn1 [Example 79]	0.0063
COCCCN1CC(=O)N2[C@H](c3ccc4c(c3)OCO4)c3[nH]c4ccccc4c3C[C@@H]2C1=O [Example 25]	0.01
O=C1CCCN1CCCN1CC(=O)N2[C@H](c3ccc4c(c3)OCO4)c3[nH]c4ccccc4c3C[C@@H]2C1=O [Example 27]	0.0054
O=C(CN1CC(=O)N2[C@H](c3ccc4c(c3)OCO4)c3[nH]c4ccccc4c3C[C@@H]2C1=O)N1CCN(c2ccccc2)CC1 [Example 42]	0.14
COCCN1CC(=O)N2[C@H](c3ccc4c(c3)OCO4)c3[nH]c4ccccc4c3C[C@@H]2C1=O [Example 29]	0.0059
O=C(CN1CC(=O)N2[C@H](c3ccc4c(c3)OCO4)c3[nH]c4ccccc4c3C[C@@H]2C1=O)Nc1ccncc1 [Example 38]	0.0039
CN(C(=O)CN1CC(=O)N2[C@H](c3ccc4c(c3)OCO4)c3[nH]c4ccccc4c3C[C@@H]2C1=O)c1ccccc1 [Example 43]	0.1
O=C(CN1CC(=O)N2[C@H](c3ccc4c(c3)OCO4)c3[nH]c4ccccc4c3C[C@@H]2C1=O)N1CCCCC1 [Example 31]	0.02
COC(=O)c1ccc(CN2CC(=O)N3[C@H](c4ccc5c(c4)OCO5)c4[nH]c5ccccc5c4C[C@@H]3C2=O)cc1 [Example 62]	0.02
CCCCN(C)C(=O)CCCN1CC(=O)N2[C@H](c3ccc4c(c3)OCO4)c3[nH]c4ccccc4c3C[C@@H]2C1=O [Example 34]	0.01

Structure (SMILES)	IC50 [µM]
N#CCN1CC(=O)N2[C@H](c3ccc4c(c3)OCO4)c3[nH]c4ccccc4c3C[C@@H]2C1=O [Example 60]	0.01
O=C(O)CCN1CC(=O)N2[C@H](c3ccc4c(c3)OCO4)c3[nH]c4ccccc4c3C[C@@H]2C1=O [Example 36]	0.05
O=C(CCN1CC(=O)N2[C@H](c3ccc4c(c3)OCO4)c3[nH]c4ccccc4c3C[C@@H]2C1=O)NC1CCCCC1 [Example 33]	0.01
CC(C)(C)OC(=O)CN1CC(=O)N2[C@H](c3ccc4c(c3)OCO4)c3[nH]c4ccccc4c3C[C@@H]2C1=O [Example 86]	0.07
O=C1[C@H]2Cc3c([nH]c4ccccc34)[C@@H](c3ccc4c(c3)OCO4)N2C(=O)CN1CCOCCO [Example 40]	0.01
NS(=O)(=O)c1ccc(CCN2CC(=O)N3[C@H](c4ccc5c(c4)OCO5)c4[nH]c5ccccc5c4C[C@@H]3C2=O)cc1 [Example 1, (6R-trans)-6-(1,3-Benzodioxol-5-yl)-2,3,6,7,12,12a-hexahydro-2-[2-(4-phenylsulfamoyl)-ethyl]pyrazino[1′,2′:1,6]pyrido[3,4-b]indole-1,4-dione]	0.0014
CC(=O)NCCN1CC(=O)N2[C@H](c3ccc4c(c3)OCO4)c3[nH]c4ccccc4c3C[C@@H]2C1=O [Example 26]	0.01
CN1CCN(CCN2CC(=O)N3[C@H](c4ccc5c(c4)OCO5)c4[nH]c5ccccc5c4C[C@@H]3C2=O)CC1 [Example 46]	0.05
O=C(CN1CC(=O)N2[C@H](c3ccc4c(c3)OCO4)c3[nH]c4ccccc4c3C[C@@H]2C1=O)NCc1ccccc1 [Example 30]	0.02
O=C(CN1CC(=O)N2[C@H](c3ccc4c(c3)OCO4)c3[nH]c4ccccc4c3C[C@@H]2C1=O)OCc1ccccc1 [Example 68]	0.04
O=C1[C@H]2Cc3c([nH]c4ccccc34)[C@@H](c3ccc4c(c3)OCO4)N2C(=O)CN1Cc1cccc(NS(=O)(=O)C(F)(F)F)c1 [Example 77]	0.0017
CON1CC(=O)N2[C@H](c3ccc4c(c3)OCO4)c3[nH]c4ccccc4c3C[C@@H]2C1=O [Example 3, (6R,12aR)-6-Benzo[1,3]dioxol-5-yl-2-methoxy-2,3,6,7,12,12a-hexahydropyrazino[1′,2′:1,6]-pyrido[3,4-b]indole-1,4-dione]	0.0025
N#Cc1ccc(CN2CC(=O)N3[C@H](c4ccc5c(c4)OCO5)c4[nH]c5ccccc5c4C[C@@H]3C2=O)cc1 [Example 59]	0.07
CC1C(=O)N2[C@H](c3ccc4c(c3)OCO4)c3[nH]c4ccccc4c3C[C@@H]2C(=O)N1CCN(C)C (stereo partly drawn) [Example 8]	0.13
O=C(CN1CC(=O)N2[C@H](c3ccc4c(c3)OCO4)c3[nH]c4ccccc4c3C[C@@H]2C1=O)Nc1ccccc1 [Example 28]	0.0039
O=C1[C@H]2Cc3c([nH]c4ccccc34)[C@@H](c3ccc4c(c3)OCO4)N2C(=O)CN1CCCn1ccnc1 [Example 32]	0.01
O=C(O)CN1CC(=O)N2[C@H](c3ccc4c(c3)OCO4)c3[nH]c4ccccc4c3C[C@@H]2C1=O [Example 69]	0.02
O=C(CCCN1CC(=O)N2[C@H](c3ccc4c(c3)OCO4)c3[nH]c4ccccc4c3C[C@@H]2C1=O)NC1CCCCC1 [Example 35]	0.0043
CC(C)(C)OC(=O)CCN1CC(=O)N2[C@H](c3ccc4c(c3)OCO4)c3[nH]c4ccccc4c3C[C@@H]2C1=O [Example 71]	0.01
CCOC(=O)CCN1CC(=O)N2[C@H](c3ccc4c(c3)OCO4)c3[nH]c4ccccc4c3C[C@@H]2C1=O [Example 24]	0.0096
NS(=O)(=O)c1ccc(CCN2CC(=O)N3[C@H](c4ccc5c(c4)OCO5)c4[nH]c5ccccc5c4C[C@@H]3C2=O)cc1 [Example 67]	0.0062
CN1CCN(NC(=O)CN2CC(=O)N3[C@H](c4ccc5c(c4)OCO5)c4[nH]c5ccccc5c4C[C@@H]3C2=O)CC1 [Example 84]	0.12
